Laboratory results: patent publication EP1538159A1, “Substituted N-benzyl-lactam derivatives as melanocortin-4 receptor agonists” (Santhera Pharmaceuticals (Schweiz) GmbH, priority 2003, dated 2005)

Legend:
hMC-3R = target: T1, hMC-3R (Homo sapiens, UniProt P41968); test: Membrane binding assay (fluorescence polarization, fluorescence labeled NDP-alpha-MSH competition); conditions: HEK293 cell membrane preparations
T1 construct: expressed in transfected cells; host or cells: HEK293
Protocol: (§1) A membrane binding assay is used to identify competitive inhibitors of fluorescence labeled NDP-alpha-MSH binding to HEK293 cell membrane preparations expressing human melanocortin receptors.
(§2) The test compound or unlabeled NDP-alpha-MSH is dispensed at varying concentrations to a 384 well microtiter plate. Fluorescence labeled NDP-alpha-MSH is dispensed at a single concentration, followed by addition of membrane preparations. The plate is incubated for 5 h at room temperature.
(§3) The degree of fluorescence polarization is determined with a fluorescence polarization microplate reader.

hMC-4R [1] = target: T2, hMC-4R (Homo sapiens, UniProt P32245); test: as above; conditions: HEK293 cell membrane preparations
T2 construct: expressed in transfected cells; host or cells: HEK293
T2 sequence (P32245 whole entry): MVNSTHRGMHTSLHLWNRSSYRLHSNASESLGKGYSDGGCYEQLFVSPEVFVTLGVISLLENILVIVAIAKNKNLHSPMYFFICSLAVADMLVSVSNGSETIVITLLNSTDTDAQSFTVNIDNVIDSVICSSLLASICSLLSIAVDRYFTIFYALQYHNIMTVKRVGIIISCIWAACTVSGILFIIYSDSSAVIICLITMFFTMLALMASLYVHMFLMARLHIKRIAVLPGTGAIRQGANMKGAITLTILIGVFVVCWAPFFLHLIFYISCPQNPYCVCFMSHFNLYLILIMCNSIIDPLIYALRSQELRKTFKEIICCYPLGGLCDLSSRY
Protocol: as §1, §2, §3

hMC-5R = target: T3, hMC-5R (Homo sapiens, UniProt P33032); test: as above; conditions: HEK293 cell membrane preparations
T3 construct: expressed in transfected cells; host or cells: HEK293
T3 sequence (P33032 whole entry): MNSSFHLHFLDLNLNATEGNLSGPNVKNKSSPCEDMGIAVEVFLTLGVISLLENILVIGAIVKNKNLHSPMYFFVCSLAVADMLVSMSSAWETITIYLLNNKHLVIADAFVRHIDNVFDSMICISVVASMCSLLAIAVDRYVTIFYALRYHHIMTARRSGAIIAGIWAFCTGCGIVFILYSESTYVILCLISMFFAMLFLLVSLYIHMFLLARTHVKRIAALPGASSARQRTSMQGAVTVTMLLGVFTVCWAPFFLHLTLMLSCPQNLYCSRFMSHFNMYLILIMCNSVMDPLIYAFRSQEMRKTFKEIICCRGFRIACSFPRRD
Protocol: as §1, §2, §3

hMC-4R [2] = target: T2, hMC-4R; test: Functional cellular cAMP assay (fluorescence polarization); type: cell-based; conditions: for EC50: HEK293 cells, cAMP production; for % activation: cAMP production compared to stimulation with NDP-alpha-MSH; for fold improvement of functional activity: compared with WO030009850A1, Examples 1 and 34; for fold better functional activity: hMC4 EC50 compared with WO030009850A1, Example 166
Protocol: A functional cellular assay, based on competition between unlabeled cAMP and a fixed quantity of fluorescence labeled cAMP for a limited number of binding sites on a cAMP specific antibody, is used to discriminate melanocortin receptor agonists from antagonists by fluorescence polarization.
HEK293 cells expressing one of the human melanocortin receptors are transferred to 384 well microtiter plates, an appropriate amount of cAMP antibody is added, followed by the addition of different concentrations of the test compound to effect cAMP production. Cells are lysed and a fluorescence labeled cAMP conjugate is dispensed. The plate is read on a fluorescence polarization microplate reader and the amount of cAMP produced as a response to a test compound is compared to the production of cAMP resulting from stimulation with NDP-alpha-MSH.
To define antagonistic activity of a test compound, the compound is dispensed at different concentrations to cells stimulated by an appropriate amount of NDP-α-MSH. Inhibition of cAMP production is determined by comparing the inhibition of cAMP production of the test compound to the inhibition of cAMP production by a known inhibitor tested at the same concentrations.

T1 sequence (P41968 whole entry): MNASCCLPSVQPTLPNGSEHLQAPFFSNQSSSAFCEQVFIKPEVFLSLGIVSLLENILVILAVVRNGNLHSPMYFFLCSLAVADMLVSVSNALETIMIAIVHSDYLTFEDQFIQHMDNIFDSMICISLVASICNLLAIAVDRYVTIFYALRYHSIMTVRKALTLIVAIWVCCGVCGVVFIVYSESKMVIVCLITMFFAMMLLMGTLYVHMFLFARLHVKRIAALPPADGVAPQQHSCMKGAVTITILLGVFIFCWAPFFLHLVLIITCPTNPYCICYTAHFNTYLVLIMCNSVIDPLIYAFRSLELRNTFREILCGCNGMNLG

IC50 (hMC-4R [1]) [nM] | IC50 (hMC-5R) [nM] | EC50 (hMC-4R [2]) [nM] | % activation (hMC-4R [2]) [%] | IC50 (hMC-3R) [nM] | Functional Activity hMC-4R, % @10 µM (hMC-4R [2]; @10 µM) [%@10 µM] | Structure (SMILES) | Binding Activity hMC-3R, % @10 uM (hMC-3R) [%@10 uM] | fold improvement of functional activity (hMC-4R [2]) | fold better functional activity (hMC-4R [2]) [fold]
110 | 6900 | 2850 | 90 | 19200 |  | O=C(N[C@H](Cc1ccc(Cl)cc1)C(=O)N1CCN(c2ccccc2CN2CCCC2=O)CC1)C1CNC1 [WO030009850 Example 166, (R)-azetidine-3-carboxylic acid (1-(4-chloro-benzyl)-2-oxo-2-{4-[2-(2-oxo-pyrrolidin-1-ylmethyl)-phenyl]-piperazin-1-yl}-ethyl)-amide, reference compound] |  |  | 
500 |  | 3740 | 96 |  |  | CS(=O)(=O)Nc1ccccc1N1CCN(C(=O)[C@@H](Cc2ccc(Cl)cc2)NC(=O)[C@H]2Cc3ccccc3CN2)CC1 [WO030009850 Example 1, (R,R)-1,2,3,4-tetrahydro-isoquinoline-3-carboxylic acid {1-(4-chloro-benzyl)-2-[4-(2-methanesulfonylamino-phenyl)-piperazin-1-yl]-2-oxo-ethyl}-amide, reference compound] |  |  | 
40 | 3300 | 1020 | 107 | 5200 |  | O=C(N[C@H](Cc1ccc(Cl)cc1)C(=O)N1CCC(c2ccccc2CN2CCCC2=O)CC1)C1CNC1 [WO030009847 Example 153, (R)-azetidine-3-carboxylic acid (1-(4-chloro-benzyl)-2-oxo-2-{4-[2-(2-oxo-pyrrolidin-1-ylmethyl)-phenyl]-piperidin-1-yl}-ethyl)-amide, reference compound] |  |  | 
29 | 1300 | 260 | 109 |  |  | O=C(N[C@H](Cc1ccc(Cl)cc1)C(=O)N1CCN(c2ccccc2CN2CCCC2=O)CC1)[C@H]1Cc2ccccc2CN1 [Example 3] | 41 | more than 14 fold | 11
2900 |  |  |  |  | 11 | CS(=O)(=O)Nc1ccccc1N1CCN(C(=O)[C@@H](Cc2ccc(Cl)cc2)NC(=O)C2CNC2)CC1 [WO030009850 Example 34, (R)-azetidine-3-carboxylic acid {1-(4-chloro-benzyl)-2-[4-(2-methanesulfonylamino-phenyl)-piperazin-1-yl]-2-oxo-ethyl}-amide, reference compound] |  |  | 
17 | 807 | 60 | 112 | 7200 |  | O=C(N[C@H](Cc1ccc(Cl)cc1)C(=O)N1CCC(c2ccccc2CN2CCCC2=O)CC1)[C@H]1Cc2ccccc2CN1 [Example 1] |  |  | 

Structure (SMILES) | IC50 (hMC-4R [1]) [nM] | IC50 (hMC-5R) [nM] | EC50 (hMC-4R [2]) [nM] | % activation (hMC-4R [2]) [%] | IC50 (hMC-3R) [nM] | Functional Activity hMC-4R, % @10 µM (hMC-4R [2]; @10 µM) [%@10 µM] | Binding Activity hMC-3R, % @10 uM (hMC-3R) [%@10 uM] | fold improvement of functional activity (hMC-4R [2]) | fold better functional activity (hMC-4R [2]) [fold]
NC1c2ccccc2CCC1C(=O)N[C@H](Cc1ccc(Cl)cc1)C(=O)N1CCN(c2ccccc2CN2CCCC2=O)CC1 (single isomer, unassigned) [Example 4B] | 21 | 1800 | 180 | 91 |  |  | 47 | > 21 fold | 16
NC1c2ccccc2CCC1C(=O)N[C@H](Cc1ccc(Cl)cc1)C(=O)N1CCC(c2ccccc2CN2CCCC2=O)CC1 (single isomer, unassigned) [Example 2B] | 7 |  | 29 | 90 |  |  |  |  | 
NC1c2ccccc2CCC1C(=O)N[C@H](Cc1ccc(Cl)cc1)C(=O)N1CCC(c2ccccc2CN2CCCC2=O)CC1 (single isomer, unassigned) [Example 2A] | 17 |  | 101 | 86 |  |  |  |  | 
